# “Also recorded” adds a separate entry of the source.
# Experiments:
# [1] = test system: LC3B-II and p62 in primary RPE monolayers; assay: Immunoblotting of LC3B-II and p62 in polarized primary RPE monolayers; assay type: cell-based, porcine
# Method: RPE harvested from mouse eyecups were sonicated in lysis buffer with protease inhibitors for 10 min. Primary RPE on TRANSWELL filters were harvested and lysed with NE-PER nuclear and cytoplasmic extraction reagents (Thermo Scientific #78833) according to the manufacturer's recommendation. Protein concentrations were measured with DC assay (BioRad). […] Proteins were then transferred onto nitrocellulose membrane using IBLOT dry transfer system (INVITROGEN), blocked in 5% milk in TBS-T for 1 hour before incubating in primary antibody overnight at 4° C. Membranes were probed with antibodies to LC3B (1:3000, Novus NB600-1384 for pig and 1:500, Sigma L7543 for mouse), p62/SQSTM1 (1:1000, ARP03-GP62-C) and actin (1:5000, Santa Cruz) followed by horseradish peroxidase-conjugated secondary antibodies. Immunoblots were visualized by ECL substrate (Thermo Scientific) and quantified using Image Studio (LI-COR). […] Other drugs used were the mTOR inhibitors Torin 1 and Torin 2 (50 nM and 1.5 μM, respectively, for 2 h, TOCRIS), the vacuolar ATPase inhibitor bafilomycin A1 (100 nM for 2 h, EMD Millipore), the LXRα agonist TO901317 (1 μM for 20 h, Cayman Chemicals), the HDAC6 inhibitor trichostatin A (TSA, 500 nM, 16 h, Sigma) and the ASMase inhibitor desipramine (10 μM for 3 h, Sigma). To depolymerize MTs, cells were treated with 33 μM nocodazole for 30 minutes, followed by cold-treatment (4° C.) for 30 minutes (Kreitzer et al., 2003). At the concentrations and exposure times used, none of these drugs caused alterations in RPE cell morphology or physiology (monitored by TER measurements, ZO-1 and organelle marker staining). […] Conversion of LC3B-I to its lipidated form (LC3B-II) is an indicator of autophagosome biogenesis and p62 levels are a measure of autophagic flux (Klionsky et al., 2012).
# [2] = Table 4, potential issues; cited from earlier work
# primary RPE cells = assay: Live imaging of tandem fluorescent mRFP-GFP-LC3 (tfLC3), autophagic flux; assay type: cell-based, porcine; details: for autophagic flux / autophagosome-lysosome fusion (tfLC3 EGFP:mRFP): RPE with A2E, 3 h drug incubation (TO901317 1 μM 20 h); for autophagy after mTOR inhibition: polarized primary RPE, Torin 1 50 nM and Torin 2 1.5 μM, 2 h
# Method: RPE cells were transfected with EGFP-LC3 or tandem fluorescent mRFP-GFP-LC3 (Addgene) using the AMAXA NUCLEOFECTOR II (Lonza). Approximately 1.5 million cells and 5 μg of plasmid DNA were used for each transfection. Cells were plated either on serum-coated glass-bottom dishes (Mattek) or […] filters at confluence.
# Andor IQ2 software was used for image acquisition and Imaris x64 (Bitplane) for image analysis. […] Trafficking data was collected from three separate transfections for a total of at least 12-30 movies captured for treatment. During image acquisition care was taken to maintain the same laser power, exposure and electron-multiplying gain settings. […] After background subtraction (using the background subtraction algorithm and identical automatic threshold for all images) and smoothing (Gaussian algorithm with identical threshold settings for all images), Spots and Tracks algorithms were used to identify vesicles and follow them through time and cell-space to obtain total track length and track displacement.
# We used tandem fluorescent mRFP-GFP-LC3 (tfLC3) to monitor autophagy in primary RPE cells in real time.
# (§1) We performed two initial screens: first, we compared the ability of functional inhibitors (fluoxetine and amitriptyline) with that of the lone structural ASMase inhibitor zoledronic acid in decreasing acetylated tubulin. Here, polarized RPE monolayers with or without A2E were treated with one of the three inhibitors (10 μM, 3 h). Desipramine as a positive control. At the end of the incubation period, cells were fixed and stained for acetylated tubulin, imaged and the amount of acetylated tubulin in the cells was quantified. Second, we evaluated three additional drugs (sertraline, astemizole and fexofenadine) for their abilities to increase autophagy in the RPE. Cells with or without bisretinoids were transfected with mRFP-GFP-LC3, starved to induce autophagy, treated with drugs and imaged as in FIG. 9D.
# [3] = test system: acetylated tubulin in polarized primary RPE; assay: Immunofluorescence staining of acetylated and tyrosinated tubulin; assay type: cell-based, porcine; details: for acetylated tubulin in RPE with A2E: inhibitors 10 μM for 3 h, 48 h after A2E treatment
# Method: ALEXAFLUOR secondary antibodies were used at 1:500 and rhodamine-phalloidin (Cytoskeleton, PHDR1) at 1:200. Filters were mounted under coverslips on glass slides under […] (Vector labs), sealed and visualized with Andor Revolution XD spinning disk confocal microscope using a 60×1.4 NA oil objective with identical exposures and gains for each antibody. Acetylated tubulin-labeled stable microtubules (≥5 μm in length) after nocodazole treatment were analyzed manually in the Surpass mode of Imaris (Bitplane).
# as §1
# [4] = test system: EGFP-LC3-labeled autophagosomes in primary RPE; assay: Live imaging of EGFP-LC3 autophagosome trafficking (spinning disk, Boolean gating); assay type: cell-based, porcine
# Method: RPE cells were transfected with EGFP-LC3 or tandem fluorescent mRFP-GFP-LC3 (Addgene) using the AMAXA NUCLEOFECTOR II (Lonza). Approximately 1.5 million cells and 5 μg of plasmid DNA were used for each transfection. Cells were plated either on serum-coated glass-bottom dishes (Mattek) or TRANSWELL filters at confluence. Live imaging of autophagosome traffic and autophagic flux were performed on the Revolution XD spinning disk microscopy system (Andor) equipped with the Yokogawa CSU-X1 confocal spinning disk head, Nikon Eclipse Ti inverted microscope surrounded by an Okolab cage incubator, iXon x3 897 EM-CCD camera, Andor laser combiner with four solid state lasers at 405, 488, 561, and 640 nm and corresponding band-pass filter sets (Sutter), and ASI motorized stage with piezo-Z for rapid Z-stack acquisition. Andor IQ2 software was used for image acquisition and Imaris x64 (Bitplane) for image analysis. For live imaging, cells were serum starved for 2 h to induce autophagy and rapid z-stacks were acquired using the 100×1.49 NA Apo TIRF objective (Nikon) for ˜50 frames at 37° C. Trafficking data was collected from three separate transfections for a total of at least 12-30 movies captured for treatment. During image acquisition care was taken to maintain the same laser power, exposure and electron-multiplying gain settings. Trafficking analysis was carried out using the Spots and Tracks modules of the Imaris software (Liu et al., 2010). After background subtraction (using the background subtraction algorithm and identical automatic threshold for all images) and smoothing (Gaussian algorithm with identical threshold settings for all images), Spots and Tracks algorithms were used to identify vesicles and follow them through time and cell-space to obtain total track length and track displacement. […] Data were analyzed using either a two-tailed t-test or one-way ANOVA followed by Bonferroni or Dunnett's post-tests (GraphPad PRISM). Unless otherwise stated, data are presented as Mean±S.E.M. of ≥3 independent experiments, with 3 to 4 replicates per condition per experiment. […] Regions were defined by: minimum or maximum track length, minimum or maximum displacement and a slope of 0.5 (displacement divided by length). Tracks with slope <0.5 were taken as less straight (region 2) than those with slope of >0.5 (region 3). Tracks within each region are represented as a percent of total number of tracks in Tables 1 and 2. One-way ANOVA or t-tests were used to compare regions between treatment groups. […] To examine the efficiency of autophagosome transport, Spots and Tracks algorithms in Imaris were used to calculate how far each autophagosome traveled (track displacement length) as a function of the movement required to travel that distance (total track length) (Liu et al., 2010).
# [5] = A2E-laden RPE after mTOR inhibition, TO901317 1 μM 20 h, desipramine 10 μM 3 h
# [6] = percent of total EGFP-LC3 tracks, serum-starved RPE, TSA 500 nM
smiles,measurement,setting,value
CO/C1=C\C(C)=C\[C@@H](C)[C@@H](O)[C@@H](C)C/C(C)=C/C=C/[C@H](OC)[C@@H]([C@@H](C)[C@@H](O)[C@H](C)[C@@]2(O)C[C@@H](O)[C@H](C)[C@@H](C(C)C)O2)OC1=O [Bafilomycin A1],LC3B-II levels (immunoblot),"[1]; after mTOR inhibition, agent versus control RPE",increased LC3B-II after mTOR inhibition in control cells but not cells exposed to A2E
O=P(O)(O)C(O)(Cn1ccnc1)P(=O)(O)O [zoledronic acid],oral bioavailability,[2],<4% oral
CC(C)(C(=O)O)c1ccc(C(O)CCCN2CCC(C(O)(c3ccccc3)c3ccccc3)CC2)cc1 (stereo not shown) [Fexofenadine],autophagic flux / autophagosome-lysosome fusion (tfLC3 EGFP:mRFP),primary RPE cells,"not as effective as astemizole, sertraline or desipramine in increasing autophagic flux"
CN(C)CCC=C1c2ccccc2CCc2ccccc21 [amitriptyline],acetylated tubulin in RPE with A2E,[3],as effective as desipramine in decreasing acetylated tubulin; also recorded: decreased acetylated tubulin levels in RPE with A2E back to control levels
CCN(CC)CCO[C@H]1CC[C@@]2(C)C(=CC[C@@H]3[C@@H]2CC[C@]2(C)C(=O)CC[C@@H]32)C1 [U18666A],acetylated tubulin,"[3]; agent alone versus control RPE, U18666A 1 μM, 16 h",Acetylated tubulin also increased
O=S(=O)(c1ccccc1)N(CC(F)(F)F)c1ccc(C(O)(C(F)(F)F)C(F)(F)F)cc1 [TO901317],LC3B-II levels / autophagosome biogenesis (immunoblot),[1]; [5],increased autophagosome biogenesis
same,p62 levels / autophagic flux (immunoblot),[1]; [5],significantly lesser than corresponding condition without TO901317
same,autophagic flux / autophagosome-lysosome fusion (tfLC3 EGFP:mRFP),primary RPE cells,restored autophagic flux in cells with A2E and decreased EGFP fluorescence back to control levels
CNCCC(Oc1ccc(C(F)(F)F)cc1)c1ccccc1 (stereo not shown) [fluoxetine],acetylated tubulin in RPE with A2E,[3],as effective as desipramine in decreasing acetylated tubulin; also recorded: decreased acetylated tubulin levels in RPE with A2E back to control levels
CN[C@H]1CC[C@@H](c2ccc(Cl)c(Cl)c2)c2ccccc21 [sertraline],autophagic flux / autophagosome-lysosome fusion (tfLC3 EGFP:mRFP),primary RPE cells,completely reversed the autophagic block induced by A2E
COc1ccc(CCN2CCC(Nc3nc4ccccc4n3Cc3ccc(F)cc3)CC2)cc1 [astemizole],autophagic flux / autophagosome-lysosome fusion (tfLC3 EGFP:mRFP),primary RPE cells,completely reversed the autophagic block induced by A2E
Nc1ccc(-c2ccc3ncc4ccc(=O)n(-c5cccc(C(F)(F)F)c5)c4c3c2)cn1 [Torin 2],autophagy after mTOR inhibition,primary RPE cells,autophagy was upregulated
"CC(/C=C/C(=O)NO)=C\[C@@H](C)C(=O)c1ccc(N(C)C)cc1 [TSA, trichostatin A]","autophagosome trafficking (long-range, directed movements)",[4]; agent alone versus control RPE,replicated the autophagosome trafficking defects seen in cells with A2E
same,"Region 1 (R1) (D <2 μm, L <5 μm)",[4]; [6],88.01%
same,"Region 3 (R3) (L >5 μm, Slope >0.5 μm)",[4]; [6],1.64%
CCC(=O)N1CCN(c2ccc(-n3c(=O)ccc4cnc5ccc(-c6cnc7ccccc7c6)cc5c43)cc2C(F)(F)F)CC1 [Torin 1],autophagy after mTOR inhibition,primary RPE cells,autophagy was upregulated

# Source: patent US10124008B2, “Use of inhibitors of acid sphingomyelinase to treat acquired and inherited retinal degenerations” (Wisconsin Alumni Research Foundation, priority 2014, dated 2018)
